# Measured values reported in patent publication US20210112813A1, “HERBICIDAL COMPOSITION AND USE THEREOF” (NANTONG JIANGSHAN AGROCHEMICAL & CHEMICALS CO., LTD., priority 2019, published 2021).
# How the values were obtained:
# Assay type in all cases: in vivo
# Abutilon [1] = experiment: Greenhouse pot test (treatment timing not given, Table 6), visual control effect, Gowing method
# Procedure: (§1) In the present application, indoor combined action of the compound of herbicide active component A and B on weeds was measured to determine the combined effect of the composition on weeds, wherein the structure of the active component A was as follows:
# (§2) The weed cultivation method was as follows: quantitative weed seeds abutilon and bristlegrass were respectively sown in a paper cup filled with nutrient soil with a diameter of 7 cm, and then cultivated in the greenhouse after covering the soil, suppressing and watering. The post-emergence stem and leaf treatment was performed when the grass weeds grew to 5-7 leaf stage, broad-leaved weeds grew to 6-8 leaf stage; the pre-emergence soil treatment was performed the second day after sowing, and the early post-emergence treatment was performed after sowing and before emergence; the experiment was repeated 3 times. After the treatment and drug solution naturally dried, the weeds were placed in the greenhouse to be managed according to conventional methods. According to the suppression or death of the weeds, a visual control effect investigation was conducted 30 days after the treatment. The application adopted the Gowing method to evaluate the combined effect of the proposed composition.
# (§3) X—Weed control effect when the amount of herbicide component A is P;
# (§4) Y—Weed control effect when the amount of herbicide component B is Q;
# (§5) E0—Theoretical control effect when the amount of herbicide component A is […];
# (§6) E—The measured control effect after the herbicide component A and the herbicide component B are mixed according to the above ratio.
# (§7) When E−E0>10%, it is synergism; when E−E0<−10%, it is antagonism; when E−E0 value is between ±10%, it is addition.
# Bristlegrass [2] = experiment: Field plot test, non-cultivated weeds, post-emergence stem and leaf spray; details: Table 10, dose 100 ga.i./hm^2
# Procedure: (§8) The present application also conducted a medicinal efficacy test on weeds on the formulation examples containing herbicide active component A and active component B by the field plot test method, and clarified the control effect of the composition on non-cultivated weeds.
# (§9) According to the different components of different formulation examples, pre-emergence soil treatment, early post-emergence and post-emergence stem and leaf spray treatment were carried out respectively. The spraying device was Singapore Linong HD400 hand-operating knapsack sprayer (No. H17001), working pressure: […], spray rate: 640 mL/min, adjustable cone spraying nozzle (325787), spraying nozzle height: 0.5 m, spray width: 0.85 m, walking speed: about 16.7 m/min, and spray volume: […];
# Abutilon [3] = experiment: as above; details: Table 10, dose 100 ga.i./hm^2
# Procedure: as §8, §9
# Amaranthusretroflexus [4] = experiment: as above; details: Table 10, dose 100 ga.i./hm^2
# Procedure: as §8, §9
# Echinochloacrusgalli [5] = experiment: as above; details: Table 10, dose 100 ga.i./hm^2
# Procedure: as §8, §9
# Bristlegrass [6] = experiment: Greenhouse pot test (treatment timing not given, Tables 6 and 7), visual control effect, Gowing method
# Procedure: as §1, §2, §3, §4, §5, §6, §7
# Bristlegrass [7] = experiment: Field plot test, non-cultivated weeds, early post-emergence
# Procedure: as §8, §9
# Abutilon [8] = experiment: as above
# Procedure: as §8, §9
# Amaranthusretroflexus [9] = experiment: as above
# Procedure: as §8, §9
# Echinochloacrusgalli [10] = experiment: as above
# Procedure: as §8, §9
# Bristlegrass [11] = experiment: Greenhouse pot test, post-emergence stem and leaf treatment, visual control effect 30 days after treatment, Gowing method
# Procedure: as §1, §2, §3, §4, §5, §6, §7
# Abutilon [12] = experiment: as above
# Procedure: as §1, §2, §3, §4, §5, §6, §7
# Bristlegrass [13] = experiment: Greenhouse pot test, pre-emergence soil treatment, visual control effect 30 days after treatment, Gowing method
# Procedure: as §1, §2, §3, §4, §5, §6, §7
# Abutilon [14] = experiment: as above
# Procedure: as §1, §2, §3, §4, §5, §6, §7
# Amaranthusretroflexus [15] = experiment: Greenhouse pot test (treatment timing not given, Table 7), visual control effect, Gowing method
Compound,Measured value E (Abutilon [1]; dose 30 ga.i./hm^2) [%],Measured value E (Abutilon [1]; dose 120 ga.i./hm^2) [%],"Control effect, Bristlegrass (Bristlegrass [2])","Control effect, Abutilon (Abutilon [3])","Control effect, Amaranthusretroflexus (Amaranthusretroflexus [4])","Control effect, Echinochloacrusgalli (Echinochloacrusgalli [5])","Measured value E (Bristlegrass [6]; Table 6, dose 30 ga.i./hm^2) [%]","Measured value E (Bristlegrass [6]; Table 6, dose 120 ga.i./hm^2) [%]","Measured value E (Bristlegrass [11]; Table 5, dose 45 ga.i./hm^2) [%]","Measured value E (Abutilon [12]; Table 5, dose 45 ga.i./hm^2) [%]","Measured value E (Bristlegrass [13]; Table 4, dose 90 ga.i./hm^2) [%]","Measured value E (Abutilon [14]; Table 4, dose 90 ga.i./hm^2) [%]",other results
CP(=O)(O)CC[C@H](N)C(=O)O.N [Glufosinate-P-ammonium],45,65,45,70,80,60,40,65,,,,,
CP(=O)(O)CCC(N)C(=O)O (centres unmarked) [Glufosinate-ammonium],40,60,50,65,70,60,30,55,,,,,
CCc1cnc(C2=NC(C)(C(C)C)C(=O)N2)c(C(=O)O)c1 (centres unmarked) [Imazethapyr],,,,,,,,,50,20,45,25,"Control effect, Bristlegrass (Bristlegrass [7]; Table 9, dose 100 ga.i./hm^2): 50; Control effect, Abutilon (Abutilon [8]; Table 9, dose 100 ga.i./hm^2): 45; Control effect, Amaranthusretroflexus (Amaranthusretroflexus [9]; Table 9, dose 100 ga.i./hm^2): 70; Control effect, Echinochloacrusgalli (Echinochloacrusgalli [10]; Table 9, dose 100 ga.i./hm^2): 60; Measured value E (Bristlegrass [11]; Table 5, dose 22.5 ga.i./hm^2): 45%; Measured value E (Abutilon [12]; Table 5, dose 22.5 ga.i./hm^2): 10%; Measured value E (Bristlegrass [13]; Table 4, dose 45 ga.i./hm^2): 30%; Measured value E (Abutilon [14]; Table 4, dose 45 ga.i./hm^2): 5%"
CCOc1cc(Oc2ccc(C(F)(F)F)cc2Cl)ccc1[N+](=O)[O-] [Oxyfluorfen],,,65,80,80,85,,,,,,,"Measured value E (Amaranthusretroflexus [15]; dose 22.5 ga.i./hm^2): 30%; Measured value E (Amaranthusretroflexus [15]; dose 45 ga.i./hm^2): 60%; Measured value E (Bristlegrass [6]; Table 7, dose 22.5 ga.i./hm^2): 15%; Measured value E (Bristlegrass [6]; Table 7, dose 45 ga.i./hm^2): 50%"
Cn1nc(C(F)(F)F)c(CS(=O)(=O)C2=NOC(C)(C)C2)c1OC(F)F [Pyroxasulfone],,,,,,,,,70,50,60,40,"Control effect, Bristlegrass (Bristlegrass [7]; Table 9, dose 200 ga.i./hm^2): 35; Control effect, Abutilon (Abutilon [8]; Table 9, dose 200 ga.i./hm^2): 30; Control effect, Amaranthusretroflexus (Amaranthusretroflexus [9]; Table 9, dose 200 ga.i./hm^2): 60; Control effect, Echinochloacrusgalli (Echinochloacrusgalli [10]; Table 9, dose 200 ga.i./hm^2): 15; Measured value E (Bristlegrass [11]; Table 5, dose 90 ga.i./hm^2): 85%; Measured value E (Abutilon [12]; Table 5, dose 90 ga.i./hm^2): 65%; Measured value E (Bristlegrass [13]; Table 4, dose 180 ga.i./hm^2): 75%; Measured value E (Abutilon [14]; Table 4, dose 180 ga.i./hm^2): 55%"
Acetofluran,,,55,75,75,70,,,,,,,"Measured value E (Amaranthusretroflexus [15]; dose 60 ga.i./hm^2): 35%; Measured value E (Amaranthusretroflexus [15]; dose 90 ga.i./hm^2): 55%; Measured value E (Bristlegrass [6]; Table 7, dose 60 ga.i./hm^2): 5%; Measured value E (Bristlegrass [6]; Table 7, dose 90 ga.i./hm^2): 30%"
